“And” between values parts separate entries of the source, which are not always exact repeats. Identical values can stand only once. Like-named read-outs stand apart in the source and are kept apart here.
Legend:
CcapOBP83a-2 [1] = biological target: T1, CcapOBP83a-2 (Ceratitis capitata, UniProt W8W3U3); test: biochemical; format: binding; settings: for IC50: read-out: IC50 (concentration of ligand halving the initial fluorescence level); for Ki: read-out: Ki (dissociation constant)
Procedure: The 1-NPN/protein mixture was excited at 337 nm and the emission was recorded between 380 and 450 nm on a Perkin Elmer LS 55 Fluorescence spectrometer (Cambridge–UK) at 25 °C in a right angle configuration with a 1 cm light path quartz cuvette. The excitation and emission slits were both 5 nm. Data were recorded and graphed using FL WinLab Software (Perkin–Elmer). […] Analyses were performed by nonlinear regression curve fitting using GraphPad Prism 5 (GraphPad Software, Inc, La Jolla, USA).

[2] = test system: antennae of male and female C. capitata; test: Coupled GC–EAG of male volatile extract on medfly antennae; parameters: species or system Ceratitis capitata; settings: for EAG response: number of females (F) that showed a positive EAG response: female antennae; for EAG response: number of females (F) that showed a positive EAG response / EAG response: number of males (M) that showed a positive EAG response: in a total of five replicates, GC–EAG; for EAG response: number of males (M) that showed a positive EAG response: male antennae; for electrophysiological (EAG) response, in words: GC–EAG of male volatile extract
Procedure: Electrical responses to chemical stimuli were recorded from the antennae of both sexes using 4 day-old virgin individuals. Electroantennogram (EAG) recordings were made with Ag–AgCl glass microelectrodes filled with Ringer solution (for 1 L H2O solution: 7.2 g NaCl, 0.37 g KCl, 0.17 g CaCl2, pH 7.3–7.4). The head of a fly (both male and female), anaesthetised by chilling, was excised from the body with a microscalpel and the tip of one of the two arista was cut off with micro-scissors. The indifferent electrode was inserted in the head (from the base to the top-frontal part) and the recording electrode was positioned over the cut arista. Signals were passed through a high impedance amplifier (UN-06, Hilversum, The Netherlands) and analysed using a customised software package (Syntech). […] The oven was maintained at 30 °C for 2 min and then programmed for increments at 5 °C min^−1 to 250 °C. The carrier gas was helium. Outputs from the EAG amplifier and the FID were monitored simultaneously and analysed using the Syntech software package. […] The stimulus (2 s duration) was delivered into a purified airstream (1 l/min) flowing continuously over the preparation using a stimulus controller (Syntech CS02). Samples (10 μl) of the standard solution of test compounds (1 mg/ml in redistilled hexane) were applied in the cartridge. The control stimulus was hexane (10 μl). Five replicates were performed for each sample using antennae from 5 different flies.

CcapOBP83a-2 [3] = biological target: T1, CcapOBP83a-2; test: Binding of fluorescent probe 1-NPN to CcapOBP83a-2 (fluorescence titration); settings: for Kd: dissociation constant (KD) of 1-NPN, protein 2 μM, 20 mM Tris–HCl pH 7.4; for saturation level of 1-NPN: protein concentration ≈2 μM
Procedure: To measure the binding affinity of the fluorescent probe 1-NPN to CcapOBP83a-2, a 2 μM solution of protein in 20 mM Tris–HCl pH 7.4 was titrated with aliquots of 1 mM 1-NPN stock to a final concentration of 0.1–50 μM in methanol. The 1-NPN/protein mixture was excited at 337 nm and the emission was recorded between 380 and 450 nm on a Perkin Elmer LS 55 Fluorescence spectrometer (Cambridge–UK) at 25 °C in a right angle configuration with a 1 cm light path quartz cuvette. The excitation and emission slits were both 5 nm. Data were recorded and graphed using FL WinLab Software (Perkin–Elmer). The affinity of other ligands was measured in competitive binding assays, using 1-NPN as fluorescent reporter at 3 μM concentration and final concentrations of each competitor from 0.1 μM to 50 μM. To determine binding constants, the fluorescent intensity values at the maximum emission (after subtracting those measured without protein) were plotted against free ligand concentrations. […] IC50 values (the concentration of ligand halving the initial fluorescence level) were used to calculate each competitor dissociation constants (KD), by the equation: KD = IC50/1 + [1 − NPN]/K1-NPN, where [1 − NPN] is the free concentration of 1 − NPN and K1-NPN is the dissociation constant of the 1-NPN/protein complex. Analyses were performed by nonlinear regression curve fitting using GraphPad Prism 5 (GraphPad Software, Inc, La Jolla, USA).

[4] = first fraction, ligand 50 μM, 1-NPN 3 μM
[5] = second fraction, ligand 50 μM, 1-NPN 3 μM

T1 sequence (W8W3U3 entry or part of it): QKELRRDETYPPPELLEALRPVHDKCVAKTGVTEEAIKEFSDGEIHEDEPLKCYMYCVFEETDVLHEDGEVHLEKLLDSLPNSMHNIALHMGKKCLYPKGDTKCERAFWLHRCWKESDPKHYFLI

Structure (SMILES) | Int (end point fluorescent level): fluorescence intensity after the maximum quantity of chemical was added (CcapOBP83a-2 [1]; [4]) | Int (end point fluorescent level): fluorescence intensity after the maximum quantity of chemical was added (CcapOBP83a-2 [1]; [5]) | EAG response: number of females (F) that showed a positive EAG response [2] | EAG response: number of males (M) that showed a positive EAG response [2] | IC50 (CcapOBP83a-2 [1]; second fraction, 1-NPN 3 μM) [µM] | Ki (CcapOBP83a-2 [1]; second fraction, 1-NPN 3 μM) | electrophysiological (EAG) response, in words [2] | Int (end point fluorescent level): fluorescence intensity after the maximum quantity of chemical was added (CcapOBP83a-2 [1]) | Ki (CcapOBP83a-2 [1]; first fraction, 1-NPN 3 μM) [nM] | binding activity, in words (CcapOBP83a-2 [1]; first fraction) | Kd (CcapOBP83a-2 [3]; first fraction of CcapOBP83a-2) [nM] | Kd (CcapOBP83a-2 [3]; second fraction of CcapOBP83a-2) | saturation level of 1-NPN (CcapOBP83a-2 [3]; first fraction) [µM] | saturation level of 1-NPN (CcapOBP83a-2 [3]; second fraction) [µM]
c1ccc2[nH]ccc2c1 [Indole] | 66.2 | 60.1 | M3F3 | M3F3 |  |  |  |  |  |  |  |  |  | 
CCCC/C=C/CC(=O)OCC [Ethyl (E)-3-octenoate] | 55.6 | 24.2 | M4F4 | M4F4 | 18 | 2410 nM |  |  |  |  |  |  |  | 
CC1CCOC1=O (stereo not drawn) [Dihydro-3-methyl-2-(3H)-furanone] | 66.5 | 58.1 | 4 | 3 |  |  |  |  |  |  |  |  |  | 
C[C@@H](O)[C@@H](C)O [(RR)-2,3-Butanediol] | 62.9 | 58.3 | 3 | 2 |  |  |  |  |  |  |  |  |  | 
CC/C=C/CC(=O)OCC [Ethyl (E)-3-hexenoate] | 68.5 | 51.5 | M4F4 | M4F4 |  |  |  |  |  |  |  |  |  | 
C=CCc1ccc(OC)c(OC)c1 [Methyleugenol, reference compound] | 61.9 | 46.0 |  |  | 43 | 4640 nM |  |  |  |  |  |  |  | 
C=C/C(C)=C/CC=C(C)C [(E)-Ocimene] | 66.3 | 50.7 | 4 | 0 | 50 | 8200 nM and 8170 nM | response only on the female antennae |  |  |  |  |  |  | 
CCC(C)C(C)=O (racemic) [(RS)-3-Methylpentan-2-one] | 65.3 | 58.3 | 3 | 0 |  |  | response only on the female antennae |  |  |  |  |  |  | 
C=CC(=C)CCC=C(C)C [Myrcene] | 77.5 | 39.6 | 4 | 0 | 10 | 900 nM and 879 nM | response only on the female antennae |  |  |  |  |  |  | 
CC(C)CCO [3-Methylbutan-1-ol] |  |  | M4F4 | M4F4 |  |  |  | 63.4 and 55.6 |  |  |  |  |  | 
C=CC(C)(O)CCC=C(C)C (racemic) [(RS)-Linalool] | 66.6 | 44.7 | 3 | 4 | 41 | 6100 nM |  |  |  |  |  |  |  | 
C=C/C(C)=C\CC=C(C)C [(Z)-Ocimene] | 49.9 | 23.4 | M4F4 | M4F4 | 13.5 | 1900 nM and 1890 nM |  |  | 4520 |  |  |  |  | 
C=CC(=C)CC/C=C(\C)CCC=C(C)C [(E)-β-Farnesene, reference compound] | 75.1 | 33.6 |  |  |  | 200 nM |  |  | 1400 | limited degree of binding |  |  |  | 
CC1CC(Cl)CCC1C(=O)OC(C)(C)C (stereo not drawn) [Trimedlure, t-Butyl-2-methyl-4-chlorocyclohexanecarboxylate, reference compound] | 66.0 | 9.8 |  |  | 2.1 | 300 nM and 322 nM |  |  |  |  |  |  |  | 
CC(=O)OC/C=C(\C)CCC=C(C)C [Geranyl acetate] | 70.4 | 17.4 | 4 | 5 | 6.5 | 900 nM and 901 nM |  |  |  |  |  |  |  | 
c1ccc(Nc2cccc3ccccc23)cc1 [1-NPN, N-phenyl-1-naphthylamine] |  |  |  |  |  |  |  |  |  |  | 10500 ± 1400 | 600 nM and 617 nM | 10 to 20 | 5 to 10
CCCCCCCC(=O)OCC [Ethyl octanoate, reference compound] | 66.3 | 26.1 |  |  | 15 | 2000 nM and 1960 nM |  |  |  |  |  |  |  | 
OC1COCC1O (stereo not drawn) [Tetrahydro-3,4-furandiol] | 66.2 | 59.9 | 4 | 2 |  |  |  |  |  |  |  |  |  | 
C=C/C(C)=C/C/C=C(\C)CCC=C(C)C [(E,E)-α-Farnesene] | 34.3 | 14.4 | 3 | 2 | 1.2 | 100 nM and 133 nM | small responses in both male and female flies |  | 6560 |  |  |  |  | 
